These results are taken from patent US10682316B2 (NOVA SOUTHEASTERN UNIVERSITY, priority 2010, dated 2020).

Values joined by “and” are separate entries in the source; they are usually repeats but may differ in a detail not shown here. Equal values may be shown once. “Also recorded” adds a separate entry of the source. Read-outs that look alike come from different tables or passages of the source.

The nature of series [1]: Particle size measurement before and after size reduction (Mastersizer, NiComp 370, Zetasizer). The class given is physicochemical. The conditions noted are these: epinephrine base. On the procedure:
These techniques involve the use of oversaturated solutions of various solvents, particularly water and isopropanol, at various temperatures and pressures ranging from about 8,000 psi to 30,000 psi and to about 8.3° to 43.3° C. under various passes. […] The particles were lyophilized (freeze-dried) using a bench top lyophilizer (ART Inc.).

Series [2] is described as follows: Visual observation of discoloration/stability after processing. The class given is physicochemical. Particulars: epinephrine bitartrate compared with epinephrine base. The text has this: The main problem was discoloration (a brown color formed) due to degradation.

For `CNC[C@H](O)c1ccc(O)c(O)c1` [Epinephrine Base, epinephrine], the “mean±SD size before size reduction” value in series [1] (Mastersizer (FIG. 3)) amounted to 32.91±0.33 μm. For the same molecule, in series [1] (Mastersizer, three measurements and mean), the “Size Before Fabrication (nm)” value is 33030 nm and 32530 nm and 33160 nm. Also, the “Amount Dissolved %” value (solubility in water) was 2.67%.
Turning to `CNC[C@H](O)c1ccc(O)c(O)c1` [Epinephrine Bit, epinephrine bitartrate], the “Stability / discoloration under fabrication conditions (nanomilling)” value in series [2] is recorded as “more stable than the epinephrine base; also recorded: did not show any discoloration”. The “Amount Dissolved %” value runs as follows: (solubility in acetone) 1.56%; (solubility in acetonitrile) 0.77%; (solubility in choloroform) 0.09%; (solubility in dichloromethane (DCM)) 0.00%; (solubility in ethyl acetate) 0.63%; (solubility in hexane) 0.03%. Also, the “Amount Dissolved %” value runs as follows: (solubility in isopropyl alcohol) 0.62%; (solubility in methanol) 10.45%; (solubility in tetrahydrofuran (THF)) 7.76%.
